Consider four compounds from PMC10092844, “Inhibition profile of trifludimoxazin towards PPO2 target site mutations” (Pest Management Science, 2022).

The target in assay [1] is R128(X) ΔG210 double-mutant enzymes. Type of assay: biochemical, Amaranthus tuberculatus.
The target in another assay is T1, PPO2 ΔG210 (Amaranthus tuberculatus, UniProt Q0NZW9, DEL210-210).
T1 sequence (Q0NZW9 with tags, fused parts or gaps DEL210-210): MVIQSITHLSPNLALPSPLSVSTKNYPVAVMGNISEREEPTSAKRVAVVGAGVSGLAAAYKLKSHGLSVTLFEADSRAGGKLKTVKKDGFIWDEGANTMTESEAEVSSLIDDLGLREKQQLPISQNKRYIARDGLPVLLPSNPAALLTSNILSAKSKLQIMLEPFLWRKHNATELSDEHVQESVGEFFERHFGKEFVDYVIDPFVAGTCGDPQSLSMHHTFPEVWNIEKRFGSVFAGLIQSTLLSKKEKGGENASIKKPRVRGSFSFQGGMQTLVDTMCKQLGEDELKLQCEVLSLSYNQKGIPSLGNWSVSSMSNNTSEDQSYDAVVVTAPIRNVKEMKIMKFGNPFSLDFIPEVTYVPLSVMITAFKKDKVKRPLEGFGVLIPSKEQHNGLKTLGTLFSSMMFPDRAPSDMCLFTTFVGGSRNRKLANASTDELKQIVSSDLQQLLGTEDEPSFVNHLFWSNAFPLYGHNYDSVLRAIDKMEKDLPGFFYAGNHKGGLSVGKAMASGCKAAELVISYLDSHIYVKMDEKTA
Type of assay: biochemical.

A further assay has as its target T2, PPO2 R128Q ΔG210 (Amaranthus tuberculatus, UniProt Q0NZW9, DEL210-210/R128Q).
T2 sequence (Q0NZW9 with tags, fused parts or gaps R128Q/DEL210-210): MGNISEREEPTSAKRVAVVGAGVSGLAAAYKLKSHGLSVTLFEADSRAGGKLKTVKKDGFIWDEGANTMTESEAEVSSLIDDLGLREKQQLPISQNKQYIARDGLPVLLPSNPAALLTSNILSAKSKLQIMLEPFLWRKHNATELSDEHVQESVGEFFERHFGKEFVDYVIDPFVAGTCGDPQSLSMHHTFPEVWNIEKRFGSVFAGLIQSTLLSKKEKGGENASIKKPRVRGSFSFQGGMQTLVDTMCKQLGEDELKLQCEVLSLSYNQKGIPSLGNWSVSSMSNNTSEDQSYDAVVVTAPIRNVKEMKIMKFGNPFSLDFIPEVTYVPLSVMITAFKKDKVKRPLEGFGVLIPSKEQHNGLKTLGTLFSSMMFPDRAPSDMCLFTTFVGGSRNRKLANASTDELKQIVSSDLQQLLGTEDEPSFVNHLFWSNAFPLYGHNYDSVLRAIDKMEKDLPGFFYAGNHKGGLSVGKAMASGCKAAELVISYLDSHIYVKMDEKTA
Kind of assay: biochemical. Type of assay: biochemical.

The target in assay [2] is T3, PPO2 R128C ΔG210 in Escherichia coli hemG (Amaranthus tuberculatus, UniProt Q0NZW9, DEL210/R128C, cells depend on it).
T3 sequence (Q0NZW9 with tags, fused parts or gaps R128C/DEL210): T2 sequence (Q0NZW9 with tags, fused parts or gaps R128Q/DEL210-210) with Q98C
Type of assay: cell-based. As to conditions: read-out: IC50 (E. coli hemG growth).

The target of assay [3] is T4, PPO2 R128N ΔG210 in Escherichia coli hemG (Amaranthus tuberculatus, UniProt Q0NZW9, DEL210-210/R128N, cells depend on it).
T4 sequence (Q0NZW9 with tags, fused parts or gaps R128N/DEL210-210): T2 sequence (Q0NZW9 with tags, fused parts or gaps R128Q/DEL210-210) with Q98N
It is filed as cell-based. Conditions: read-out: IC50 (E. coli hemG growth).

Assay [4] concerns the target T5, PPO2 R128H ΔG210 in Escherichia coli hemG (Amaranthus tuberculatus, UniProt Q0NZW9, DEL210/R128H, cells depend on it).
T5 sequence (Q0NZW9 with tags, fused parts or gaps R128H/DEL210): T1 sequence (Q0NZW9 with tags, fused parts or gaps DEL210-210) with R128H
Type of assay: cell-based. Conditions: read-out: IC50 (E. coli hemG growth).

Where [5] appears, read: read-out: IC50 (over R128(X) ΔG210 mutants).

Structures are written as SMILES. Changes are numbered by the printed parent chain. Where two headings read alike, the source gives them in different places.

With `CS(=O)(=O)NC(=O)c1cc(Oc2ccc(C(F)(F)F)cc2Cl)ccc1[N+](=O)[O-]` [Fomesafen, fomesafen], the IC50 (as a rule, the concentration that inhibits the measured activity by half) is below 10 µM in assay [1] (setting [5]), above 10 µM on PPO2 ΔG210 and above 10 µM against PPO2 R128Q ΔG210.

Take `CC(C)N(C)S(=O)(=O)NC(=O)c1cc(-n2c(=O)cc(C(F)(F)F)n(C)c2=O)c(F)cc1Cl` [Saflufenacil, saflufenacil]: the IC50 in assay [2] is above 10 µM; in assay [1] (setting [5]) it was below 10 µM; in assay [3] it was above 10 µM; against PPO2 ΔG210 it was 2.04 µM; against PPO2 R128Q ΔG210 it was above 10 µM; in assay [4], above 10 µM.

Consider `C#CCN1C(=O)C(F)(F)Oc2cc(F)c(-n3c(=O)n(C)c(=S)n(C)c3=O)cc21` [Trifludimoxazin, trifludimoxazin], for which the IC50 in assay [2] is 0.0465 µM; in assay [1] (setting [5]) it was 0.001 to 0.1 µM; in assay [3], 0.00987 µM; against PPO2 ΔG210, 0.00183 µM; against PPO2 R128Q ΔG210, 0.0145 µM; in assay [4] it was 0.09 µM. Further, the Resistance factor at PPO2 ΔG210 stood at 7; at PPO2 R128Q ΔG210, 59.

For `CCOC(=O)C(C)OC(=O)c1cc(Oc2ccc(C(F)(F)F)cc2Cl)ccc1[N+](=O)[O-]` (stereo not drawn) [Lactofen, lactofen], the IC50 in assay [2] is above 10 µM; in assay [1] (read-out: IC50 values), above 10 µM; in assay [1] (read-out: IC50 values (range over variants)), 0.1 to 1 µM; in assay [3], above 10 µM; at PPO2 ΔG210 it was 0.544 µM; on PPO2 R128Q ΔG210, 1.75 µM. Further, the IC50 in assay [4] was above 10 µM.
